Data set [1] concerns the target T1, PGR-2 (Mus musculus, UniProt Q8VDQ1).
T1 construct: GST (N); made in house; host or cells: E. coli
Briefly: PGR-2 enzymatic activity: substrate specificity and kinetics. The note with it: for specific activity with PGR-2 (substrate specificity): 15-keto PGE2 replaced with the substrate, 0.5 mM NADPH, 2 hours at 37° C.; for reduction catalyzed by PGR-2 (kinetics studies): recombinant PGR-2, NADPH cofactor. It is filed as biochemical. The protocol: Mouse PGR-2 was recombinantly expressed in E. coli as a GST fusion protein following standard procedures. The recombinant PGR-2 protein thus obtained was used to determine substrate specificity and enzymatic kinetics.
Substrate specificity of PGR-2 was determined using the just-described procedure, except that 15-keto PGE2 was replaced with each of six prostaglandin substrates, each of three downstream metabolites, or leukotriene B4. The substrates were purchased from Cayman Chemical Company (Michigan, USA).
Unlike PGR/LTB4DH, PGR-2 used NADPH as a cofactor much more efficiently than NADH.
The substrate was 15-keto prostaglandin E1, 15-keto prostaglandin E2, 15-keto prostaglandin F1α, 15-keto prostaglandin F2α, 15-keto-fluprostenol isopropyl ester, or 15-keto-fluprostenol, which were purchased from Cayman Chemical Company (Michigan, USA). […] Absorbance at 490 nm was measured by an ELISA plate reader.

Data set [2] deals with PPARs. Kind of data set: Reporter gene assay of endogenous PPARs activity in 3T3-L1 cells. The note with it: 3T3-L1 cells induced to differentiate for two days, transfected with reporter gene. In kind it is cell-based, mouse. The protocol:
(§1) The effect of prostaglandin on PPAR-γ activity in adipocytes was investigated. After treatment with a medium that induces cell differentiation, 3T3-L1 cells were treated from day 2 to 4 during adipogenesis with 14 μM 15-keto PGE2, 13,14-dihydro-15-keto PGE2, 15-keto PGF2α, 13,14-dihydro-15-keto PGF2α, or 4.5 μM of BRL49653 (a PPAR-γ agonist). See Forman et al., Cell (1995) 83:803-812. At day 6, aggregates of lipid droplets were stained with oil-red O for observation. […] After being induced to differentiate for two days, the 3T3-L1 cells were transfected with a reporter gene.

Data set [3] has as its target T2, PPAR-α (Homo sapiens, UniProt Q07869).
T2 construct: expressed in transfected cells; host or cells: 3T3-L1
T2 sequence (Q07869 239-466 limits assumed): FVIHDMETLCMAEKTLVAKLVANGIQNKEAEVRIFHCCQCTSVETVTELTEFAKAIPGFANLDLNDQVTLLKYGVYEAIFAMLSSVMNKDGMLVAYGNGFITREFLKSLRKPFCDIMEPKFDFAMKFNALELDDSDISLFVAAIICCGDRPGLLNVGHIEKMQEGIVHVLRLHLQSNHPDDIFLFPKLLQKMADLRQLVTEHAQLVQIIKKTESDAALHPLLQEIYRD
Kind of data set: Luciferase reporter with PPAR ligand-binding domain fused to GAL4 DNA-binding domain in 3T3-L1 cells. The note with it: relative to PPAR-γ activation. It is filed as cell-based. An excerpt: (§2) A luciferase reporter gene was transfected to 3T3-L1 cells together with the ligand-binding domain of […], PPAR-γ or […] fused to a yeast GAL4 DNA-binding domain.
On the technique in general: In a reporter assay the amount or activity of a reporter protein is the signal.

Data set [4] has as its target T3, PPAR-γ (Homo sapiens, UniProt P37231).
T3 construct: expressed in transfected cells; host or cells: 3T3-L1
T3 sequence (P37231 238-503 limits assumed): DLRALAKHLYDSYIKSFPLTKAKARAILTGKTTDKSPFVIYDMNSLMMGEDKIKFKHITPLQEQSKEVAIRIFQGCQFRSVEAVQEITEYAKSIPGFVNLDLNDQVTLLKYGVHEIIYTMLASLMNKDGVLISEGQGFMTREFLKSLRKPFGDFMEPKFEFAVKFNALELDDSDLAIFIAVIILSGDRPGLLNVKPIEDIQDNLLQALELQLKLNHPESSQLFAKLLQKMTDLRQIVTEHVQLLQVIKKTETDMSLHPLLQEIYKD
Described as above. In kind it is cell-based.
Description: as §2

The subject of data set [5] is 3T3-L1 cells. Briefly: Adipogenesis in 3T3-L1 cells, oil-red O staining of lipid droplets. In kind it is cell-based, mouse. The note with it: 14 μM, day 2 to 4 during adipogenesis; stained at day 6. The protocol:
as §1

In data set [6] the test system is PPAR-γ target genes. Kind of data set: Protein expression of adipogenesis-specific PPAR-γ target genes in 3T3-L1 cells. It is filed as cell-based, mouse. An excerpt:
Also examined was the ability of 15-keto PGE2 to induce protein expression of adipogenesis-specific, PPAR-γ target genes, i.e., IRS-1and -2.

Data set [7] has as its system 3T3-L1 cells. Kind of data set: Glucose transport assay, uptake of 2-deoxy-D-[3H]glucose in differentiated 3T3-L1 cells. It is filed as cell-based, mouse. On the procedure: 3T3-L1cells were induced to differentiate in the same manner as described above. A glucose transport assay was performed by measuring uptake of 2-deoxy-D-[3H]glucose as described by Fingar et al. See Fingar et al., Endocrinology 134:728-735. 1.67 μM of the compound or 45 nM of a PPARs agonist, i.e., Avandia, was added to the cells. 10 μM cytochalasin-B was used to measure background glucose uptake levels.

The test system of data set [8] is Female diabetic mice (C57BLKS/J-m+/+Lep^db). Kind of data set: Blood glucose levels in diabetic mice. It is filed as in vivo, mouse. Conditions: 25 mg/kg intraperitoneally twice a day for two days; fasted 48th through 52nd hour. The protocol: The in vivo effect compound 45 on glucose metabolism was also investigated. Female diabetic mice were obtained from the Jackson Laboratory (C57BLKS/J-m+/+Lep^db, 12 to 13 weeks old). These mice were characterized as insulin-resistant and hyperglycemic. 25 mg/kg of 2,2′-dihydroxychalcone (n=8) or placebo (n=4, final concentration against body fluid: 0.5% DMSO/1% ethanol) was injected intraperitoneally to the mice twice a day for two days. The mice were then fasted from the 48th hour through 52nd hour after the first injection. Blood samples were collected from the retro-orbital sinus before the first injection, and every two hours after two days of treatment. Blood glucose levels were measured by an electrode-type blood glucose meter (HORIBA, AntSense II, Japan).

For data set [9], the system named is PPAR-γ. Kind of data set: Transcriptional activation of PPAR-γ after siRNA transfection. Conditions: transfection of siRNA duplexes. In kind it is cell-based. An excerpt:
(§3) An RNA interference (RNAi) approach was used to silence PGR-2 expression. Two small interfering RNA (siRNA) duplexes, i.e., […] (SEQ ID NO:7) and […] (SEQ ID NO:8), were annealed first and then introduced into 3T3-L1 fibroblasts or differentiating pre-adipocytes by transfection using oligofectamine (Invitrogen). Transfection of the siRNA duplexes reduced PGR-2 expression. In another experiment, transfection of the siRNA duplexes increased transcriptional activation of PPAR-γ. Thus, one can modulate PPAR-γ activity via silencing PGR-2 expression by RNA interference.

The subject of data set [10] is PGR-2. Kind of data set: RNA interference silencing of PGR-2 expression in 3T3-L1 cells. It is filed as cell-based, mouse. Conditions: transfection into 3T3-L1 fibroblasts or differentiating pre-adipocytes.
Description: as §3

T1 sequence (Q8VDQ1 whole entry): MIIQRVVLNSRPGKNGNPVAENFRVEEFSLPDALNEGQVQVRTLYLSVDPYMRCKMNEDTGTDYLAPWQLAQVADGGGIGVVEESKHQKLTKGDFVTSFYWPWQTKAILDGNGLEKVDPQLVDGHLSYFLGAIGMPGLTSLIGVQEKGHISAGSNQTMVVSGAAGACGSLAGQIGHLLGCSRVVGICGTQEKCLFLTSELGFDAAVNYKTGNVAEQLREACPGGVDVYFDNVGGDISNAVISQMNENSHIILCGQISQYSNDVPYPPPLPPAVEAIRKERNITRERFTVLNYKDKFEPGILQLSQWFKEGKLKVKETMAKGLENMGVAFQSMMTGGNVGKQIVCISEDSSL

As to `CCCCC[C@H](O)/C=C/[C@@H]1[C@@H](CC(=O)CCCCC(=O)O)[C@@H](O)C[C@H]1O` [6-keto PGF1α], the “specific activity with PGR-2 (substrate specificity)” value (“specific activity” for short) in [1] is listed as “no specific activity was detected”.

For `CCCCCC(=O)CC[C@H]1[C@H](O)CC(=O)[C@@H]1C/C=C\CCCC(=O)O` [13,14-dihydro-15-keto PGE2], in data set [1], the “specific activity” value was “no specific activity was detected”. Further, the “endogenous PPARs activity (reporter gene)” value (“endogenous PPARs activity” below) in [2] was “failed to increase PPARs activity”.

Consider `CCCCCC(=O)CC[C@@H]1[C@@H](C/C=C\CCCC(=O)O)[C@@H](O)C[C@H]1O` [13,14-dihydro-15-keto PGF2α], for which the “endogenous PPARs activity” value in [2] was “failed to increase PPARs activity”.

As to `CCCCCC(=O)/C=C/[C@H]1[C@H](O)CC(=O)[C@@H]1CCCCCCC(=O)O` [15-keto PGE1, 15-keto prostaglandin E1], in data set [1], the “specific activity” value was “reacted specifically” and the “reduction catalyzed by PGR-2 (kinetics studies)” value (“reduction catalyzed” below) is “catalyzed reduction”.

In the case of `CCCCCC(=O)/C=C/[C@H]1[C@H](O)CC(=O)[C@@H]1C/C=C\CCCC(=O)O` [15-keto PGE2, 15-keto prostaglandin E2], the “reduction catalyzed” value in data set [1] is given as “catalyzed reduction”. Also, the “activation of PPAR-α (GAL4 fusion, luciferase reporter)” value in [3] is on record as “to a lesser degree”. In [4], the “activation of PPAR-γ (GAL4 fusion, luciferase reporter)” value is given as “activated”. Further, the “adipogenesis (lipid droplets stained with oil-red O)” value in data set [5] is “effectively enhanced adipogenesis at a level similar to BRL49653”. Besides, the “endogenous PPARs activity” value in data set [2] is listed as “enhanced endogenous PPARs activity significantly”. In data set [6], the “amount of IRS-1 protein” value was “did not increase”. Besides, the “PPAR-γ1 and PPAR-γ2 expression” value in [6] (added with MIX, insulin and dexamethasone) is given as “significantly enhanced”. In addition, in data set [6] (even in the absence of MIX), the “expression of aP2, an adipocyte-specific marker” value is on record as “strongly induced”. The IRS-2 expression entry in [6] (in the presence of insulin and dexamethasone) is on record as “enhanced the expression to a level similar to MIX”.

For `CCCCCC(=O)/C=C/[C@@H]1[C@@H](CCCCCCC(=O)O)[C@@H](O)C[C@H]1O` [15-keto PGF1α, 15-keto prostaglandin F1α], in data set [1], the “specific activity” value is “reacted specifically” and the “reduction catalyzed” value is “catalyzed reduction”.

As for `CCCCCC(=O)/C=C/[C@@H]1[C@@H](C/C=C\CCCC(=O)O)[C@@H](O)C[C@H]1O` [15-keto PGF2α, 15-keto prostaglandin F2α], in data set [1], the “specific activity” value is recorded as “reacted specifically” and the “reduction catalyzed” value was “catalyzed reduction”. For the same compound, the “activation of PPAR-α (GAL4 fusion, luciferase reporter)” value in data set [3] is on record as “to a lesser degree”. In [4], the “activation of PPAR-γ (GAL4 fusion, luciferase reporter)” value is reported as “activated”. Also, in data set [2], the “endogenous PPARs activity” value is “enhanced endogenous PPARs activity significantly”.

Regarding `CC(C)OC(=O)CCC/C=C\C[C@@H]1[C@@H](/C=C/C(=O)COc2cccc(C(F)(F)F)c2)[C@H](O)C[C@@H]1O` [15-keto fluprostenol isopropyl ester], in data set [1], the “reduction catalyzed” value is given as “catalyzed reduction”.

As to `O=C(O)CCC/C=C\C[C@@H]1[C@@H](/C=C/C(=O)COc2cccc(C(F)(F)F)c2)[C@H](O)C[C@@H]1O` [15-keto fluprostenol], the “reduction catalyzed” value in data set [1] is reported as “catalyzed reduction”.

On to `O=C(c1cc2cc(Cl)ccc2oc1=O)c1cc2cc(Cl)ccc2oc1=O` [Compound 27], for which the “ability to enhance glucose uptake compared with Avandia” value in data set [7] (1.67 μM compound vs 45 nM Avandia) is “comparable to that of Avandia”. The “increase of glucose uptake” value in [7] (differentiated 3T3-L1 cells, 1.67 μM compound, 100 nM insulin to stimulate uptake) is on record as 30 folds.

Turning to `O=C(/C=C/c1ccccc1O)c1ccccc1O` [Compound 45, 2,2′-dihydroxychalcone], in data set [8], the “blood glucose levels compared to placebo controls” value is “significant reduction”.

Consider `CCCCC/C=C\C[C@@H](O)/C=C/C=C/C=C\[C@@H](O)CCCC(=O)O` [leukotriene B4], for which, in data set [1], the “specific activity” value was “no specific activity was detected”.

As to “SEQ ID NO:7: small interfering RNA (siRNA) duplex gaguucaguuuaccggaug to silence PGR-2 expression (GAGUUCAGUUUACCGGAUG; chemistry not given here)”, the “transcriptional activation of PPAR-γ” value in data set [9] is reported as “increased”. In addition, the PGR-2 expression result in data set [10] is “reduced”.

For “SEQ ID NO:8: small interfering RNA (siRNA) duplex guucaagugaggacucuuu to silence PGR-2 expression (GUUCAAGUGAGGACUCUUU; chemistry not given here)”, in data set [9], the “transcriptional activation of PPAR-γ” value is recorded as “increased”. Further, in data set [10], the PGR-2 expression result is recorded as “reduced”.

(Values after patent US20090124688A1, “Prostaglandin reductase inhibitors” (priority 2006, published 2009).)
